US9060988B2, “Method for treating pulmonary fibrosis using a pharmaceutical composition containing stanniocalcin 1 (STC1)” (Tohoku University, priority 2011, dated 2015)

Legend:
[1] = test system: bleomycin pulmonary fibrosis model; experiment: Fibrillization suppressing effect in bleomycin pulmonary fibrosis model mouse (histopathologic staining of lung); format: in vivo, C57BL6/J mice; parameters: key to 8OHDG (extent of peroxides accumulation) / HE (fibrillization) / EM (fibrillization): −: not observed; +: mild; ++: moderate; +++: severe; details: for 8OHDG staining of lung tissue (amount of peroxides, FIG. 7) / fibrillization (HE and EM stained images, FIGS. 1 to 5): bleomycin model; for 8OHDG staining of lung tissue (amount of peroxides, FIG. 7): extent similar to that of the normal lung group; for fibrillization (HE and EM stained images, FIGS. 1 to 5) / response on progression of pulmonary fibrosis: intratracheal administration; for fibrillization (HE and EM stained images, FIGS. 1 to 5): versus saline control group in which fibrillization was induced; for response on progression of pulmonary fibrosis: bleomycin pulmonary fibrosis model; for 8OHDG (extent of peroxides accumulation) / EM (fibrillization) / HE (fibrillization): lung tissue, one week after intratracheal administration together with bleomycin, STC1 500 ng, NAC 3 mg; for 8OHDG (extent of peroxides accumulation): 8OHDG staining; for EM (fibrillization): Elastica-Masson staining; for HE (fibrillization): HE staining
Excerpt: The action of STC1 was investigated using a pulmonary fibrosis model utilizing the mitotic inhibitory action of an anticancer agent, bleomycin (Bleo), as the disease model mouse.
Human recombinant (r) STC1 was produced by BioVender, Inc. Specifically, human-derived STC1 gene added with a TAG structure was introduced into the 293 cells, and rSTC1 was separated using the TAG sequence.
Specifically, C57BL6/J mice (female, 10 weeks old), four animals in each group, were anesthetized by intraperitoneally administering an anesthetic agent (obtained by diluting 300 μg of ketamine hydrochloride and […] of xylazine in 100 μL of physiological saline). Thereafter, the cervix was cut open to expose a trachea, and the jacket of a 23G SURFLO needle was inserted into the trachea. Then, the following drugs were respectively administered intratracheally through the SURFLO jackets to the mice of each group.
(1) Saline control group: 50 μL of bleomycin-containing physiological saline (bleomycin concentration: 400 ng/mL)
(2) STC1-administered group: 500 ng of STC1+50 μL of bleomycin-containing physiological saline
(3) NAC-administered group (positive control): 3 mg of NAC+50 μL of bleomycin-containing physiological saline
(4) Normal lung group: 50 μL of physiological saline
After one week, the mice were euthanized by anesthetizing the mice as described above and then cutting the carotid artery, and subsequently, the lungs were removed. The extirpated lung tissues were subjected to histopathologic staining (HE (hematoxylin eosin) staining, EM (Elastica-Masson staining), and 8OHDG staining) by standard methods.

[2] = literature report; cited from earlier work

Row | Compound | 8OHDG staining of lung tissue (amount of peroxides, FIG. 7) [1] | fibrillization (HE and EM stained images, FIGS. 1 to 5) [1] | response on progression of pulmonary fibrosis [1] | 8OHDG (extent of peroxides accumulation) [1] | EM (fibrillization) [1] | HE (fibrillization) [1] | suppression of the immune system [2]
1 | CC(=O)N[C@@H](CS)C(=O)O [NAC, N-acetylcysteine, reference compound] | poorly stained | fibrillization was suppressed | amelioration | + | +~++ | +~++ | 
2 | Stanniocalcin 1 [STC1] | poorly stained | fibrillization was suppressed | complete response | + | + | + | does not cause suppression of the immune system
